ChEMBL document CHEMBL1201862, “PubChem BioAssay data set” (2004)
The source made the active and inactive calls.

What was measured:
Streptococcus = assay: Group A Streptococcus viability loss, dose response, counter-screen for streptokinase expression inhibitor project, luminescence, BacTiterGlo (AID 1915); format: functional, organism-based;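 also: potency for reduction of bacterial viability or growth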
[1] = HEp-2 cell cytotoxicity, dose response, cytotoxicity control for RSV inhibitor project, HTS (AID 2410); format: functional; settings: human respiratory syncytial virus
Streptokinase A = biological target: T1, Streptokinase A (Streptococcus pyogenes serotype M1, UniProt P10520); assay: S. pyogenes streptokinase expression inhibitors, potency, dose response, plasminogen activation absorbance, OD405 (AID 1914); format: functional, Streptococcus pyogenes M1 GAS;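 also: secreted streptokinase activity via plasminogen activation per viability signal from cell pellet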
T1 sequence (P10520 whole entry): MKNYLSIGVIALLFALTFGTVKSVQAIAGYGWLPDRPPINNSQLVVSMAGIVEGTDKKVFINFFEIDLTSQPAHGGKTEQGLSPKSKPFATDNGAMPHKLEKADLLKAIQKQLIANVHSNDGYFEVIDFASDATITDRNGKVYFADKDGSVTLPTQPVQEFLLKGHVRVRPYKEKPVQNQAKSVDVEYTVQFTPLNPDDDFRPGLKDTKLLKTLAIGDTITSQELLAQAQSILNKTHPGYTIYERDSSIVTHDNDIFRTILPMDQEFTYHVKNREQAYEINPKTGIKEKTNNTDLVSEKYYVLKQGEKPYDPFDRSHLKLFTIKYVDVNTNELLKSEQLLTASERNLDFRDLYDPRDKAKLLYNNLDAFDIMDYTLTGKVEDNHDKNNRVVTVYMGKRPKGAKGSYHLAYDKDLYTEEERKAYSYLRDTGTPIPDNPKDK

[2] = tested on: Streptococcus sp. 'group A'; assay: growth inhibition of control SK(-) GAS strain, dose response, counter-screen for streptokinase expression inhibitor project, luminescence, kanamycin, BacTiterGlo, confirmation (AID 1900); format: functional, organism-based
[3] = NIH-3T3 fibroblast cytotoxicity, dose response, cytotoxicity control, cell-based, fluorescence, Alamar Blue, secondary assay (AID 2327); format: functional;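 also: NIH-3T3 mouse fibroblasts cultured with fluconazole at 8 µg/mL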
[4] = C. albicans growth with fluconazole, confirmation, fluorescence, retest (AID 2467); format: functional, cell-based
Cytochrome P450 3A4 = Cytochrome P450 3A4 (Homo sapiens, UniProt P08684);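 also: CYP3A4 tested as one member of a cytochrome P450 panel screen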
[5] = biological target: T2, Short transient receptor potential channel 4 (Mus musculus, UniProt Q9QUQ5); assay: mouse TRPC4 channel inhibitors, dose response, cell-based, HEK293 TRPC4/mu-opioid, Fluo-4 calcium (AID 434942); format: functional;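 also: potency of inhibitors blocking the TRPC4 calcium response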
T2 sequence (Q9QUQ5 whole entry): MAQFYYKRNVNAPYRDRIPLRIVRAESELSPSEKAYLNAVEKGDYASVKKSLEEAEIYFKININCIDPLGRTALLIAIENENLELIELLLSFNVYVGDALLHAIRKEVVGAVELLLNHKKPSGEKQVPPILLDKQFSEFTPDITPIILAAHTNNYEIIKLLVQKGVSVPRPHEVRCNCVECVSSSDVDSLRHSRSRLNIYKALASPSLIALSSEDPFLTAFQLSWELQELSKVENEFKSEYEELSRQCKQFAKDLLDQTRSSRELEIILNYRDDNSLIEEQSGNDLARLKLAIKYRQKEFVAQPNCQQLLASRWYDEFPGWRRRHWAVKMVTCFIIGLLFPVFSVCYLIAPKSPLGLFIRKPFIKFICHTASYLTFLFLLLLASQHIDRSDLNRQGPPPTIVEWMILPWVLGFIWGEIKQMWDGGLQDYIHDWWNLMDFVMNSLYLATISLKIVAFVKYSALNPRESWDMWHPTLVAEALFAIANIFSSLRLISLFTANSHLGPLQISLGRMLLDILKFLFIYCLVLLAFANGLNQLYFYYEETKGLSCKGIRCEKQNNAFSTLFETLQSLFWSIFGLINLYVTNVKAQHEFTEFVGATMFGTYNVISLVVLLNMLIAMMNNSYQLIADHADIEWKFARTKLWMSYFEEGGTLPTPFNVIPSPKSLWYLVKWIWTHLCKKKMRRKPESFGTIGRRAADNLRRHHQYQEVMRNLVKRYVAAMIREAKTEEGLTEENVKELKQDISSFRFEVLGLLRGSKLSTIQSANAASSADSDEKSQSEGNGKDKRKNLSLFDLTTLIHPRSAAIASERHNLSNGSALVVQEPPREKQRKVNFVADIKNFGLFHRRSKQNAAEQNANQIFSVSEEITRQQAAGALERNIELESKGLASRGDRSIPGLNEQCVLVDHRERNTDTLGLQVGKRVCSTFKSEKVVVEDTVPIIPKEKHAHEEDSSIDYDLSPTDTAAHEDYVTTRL

Cytochrome P450 2C9 = Cytochrome P450 2C9 (Homo sapiens, UniProt P11712)
[6] = biological target: T3, Corticotropin-releasing factor receptor 2/Corticotropin-releasing factor-binding protein (Homo sapiens, UniProt P24387+Q13324); assay: Dose Response confirmation of uHTS hits for small molecule antagonists of the CRF-binding protein and CRF-R2 receptor complex.; format: functional; settings: read-out: IC50_Mean
T3 sequence (Q13324 whole entry): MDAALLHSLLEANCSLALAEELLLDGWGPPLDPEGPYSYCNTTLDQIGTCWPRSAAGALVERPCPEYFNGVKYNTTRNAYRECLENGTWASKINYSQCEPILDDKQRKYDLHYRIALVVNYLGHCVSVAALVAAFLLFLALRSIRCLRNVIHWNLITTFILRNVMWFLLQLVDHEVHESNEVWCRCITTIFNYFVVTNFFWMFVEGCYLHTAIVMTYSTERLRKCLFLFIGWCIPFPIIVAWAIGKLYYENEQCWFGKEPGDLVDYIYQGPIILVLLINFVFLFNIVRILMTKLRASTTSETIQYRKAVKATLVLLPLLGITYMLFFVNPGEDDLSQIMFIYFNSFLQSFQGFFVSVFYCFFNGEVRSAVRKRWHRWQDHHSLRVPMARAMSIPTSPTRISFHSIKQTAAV
T3 sequence (P24387 whole entry): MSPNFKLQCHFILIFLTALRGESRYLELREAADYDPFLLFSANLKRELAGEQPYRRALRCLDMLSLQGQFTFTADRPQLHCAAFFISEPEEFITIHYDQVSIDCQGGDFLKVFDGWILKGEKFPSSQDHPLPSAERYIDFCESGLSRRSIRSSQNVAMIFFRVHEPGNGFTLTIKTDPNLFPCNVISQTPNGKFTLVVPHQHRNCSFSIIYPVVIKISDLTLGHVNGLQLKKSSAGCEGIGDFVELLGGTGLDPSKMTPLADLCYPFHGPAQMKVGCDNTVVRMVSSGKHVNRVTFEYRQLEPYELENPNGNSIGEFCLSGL

[7] = biological target: T3, Corticotropin-releasing factor receptor 2/Corticotropin-releasing factor-binding protein; assay: activators of CRF receptor 2 with binding protein – uHTS hits, confirmation (AID 602473); format: functional; settings: read-out: EC50_Mean
[8] = Luminescence Cell-Based Dose Retest to Confirm Inhibitors of Cancer Stem Cells. [Related pubchem assays (depositor defined):AID2717, AID2721]; format: functional; settings: Homo sapiens

Chain of Cytochrome P450 3A4 (P08684 whole entry): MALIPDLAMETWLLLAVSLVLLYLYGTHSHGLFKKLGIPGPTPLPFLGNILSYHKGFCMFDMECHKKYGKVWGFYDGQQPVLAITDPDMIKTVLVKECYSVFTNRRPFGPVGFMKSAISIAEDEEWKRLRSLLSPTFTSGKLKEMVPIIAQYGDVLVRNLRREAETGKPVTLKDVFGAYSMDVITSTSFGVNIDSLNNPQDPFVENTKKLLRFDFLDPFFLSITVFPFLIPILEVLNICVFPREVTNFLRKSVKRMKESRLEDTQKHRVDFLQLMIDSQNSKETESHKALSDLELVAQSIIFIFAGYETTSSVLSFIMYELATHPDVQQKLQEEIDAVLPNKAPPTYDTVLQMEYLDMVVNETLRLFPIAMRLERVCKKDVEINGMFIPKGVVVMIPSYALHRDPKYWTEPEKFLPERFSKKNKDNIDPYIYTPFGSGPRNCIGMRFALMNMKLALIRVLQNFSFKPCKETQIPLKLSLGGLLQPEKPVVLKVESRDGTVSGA
Chain of Cytochrome P450 2C9 (P11712 whole entry): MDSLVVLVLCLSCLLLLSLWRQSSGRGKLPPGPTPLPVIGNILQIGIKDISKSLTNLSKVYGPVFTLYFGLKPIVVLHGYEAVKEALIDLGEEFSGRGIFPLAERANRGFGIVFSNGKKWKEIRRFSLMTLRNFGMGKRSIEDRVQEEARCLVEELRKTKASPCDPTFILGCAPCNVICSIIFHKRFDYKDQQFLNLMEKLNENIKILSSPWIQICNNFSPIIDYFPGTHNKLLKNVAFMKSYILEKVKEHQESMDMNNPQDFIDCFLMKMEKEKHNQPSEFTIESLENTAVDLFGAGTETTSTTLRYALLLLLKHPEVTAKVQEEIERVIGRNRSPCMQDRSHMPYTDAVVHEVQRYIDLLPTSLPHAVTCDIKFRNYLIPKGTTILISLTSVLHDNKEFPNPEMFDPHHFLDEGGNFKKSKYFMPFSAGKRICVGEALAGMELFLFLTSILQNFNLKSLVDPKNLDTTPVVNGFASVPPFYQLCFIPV

With `Oc1nc(NN=C(S)NC2CCCCC2)nc2c1C1(CCCC1)Cc1ccccc1-2` the EC50 (Streptococcus) was 17.2 µM (active), the CC50 [1] was 25.7 µM (active) and the EC50 (Streptokinase A) was 16.1 µM (active). For the same molecule, the EC50 [2] was 5.2 µM (active).

With `COC(=O)[C@@H]1CCCN1Cc1nc(Cc2ccccc2F)no1` the EC50 [3] was > 160 µM (inactive) and the EC50 [4] was > 38 µM (not active).

In the case of `Cc1ccc(SCCNC(=O)c2ccccc2)cc1`, the AC50 (Cytochrome P450 3A4) is reported as 12.6 µM (inconclusive).

In the case of `S=C(NCCN1CCOCC1)NC1CCCC1`, the EC50 [3] is reported as > 150 µM (inactive) and the EC50 [4] is reported as > 38 µM (not active).

For `Cc1ccc(Oc2ccccc2/C=N/O)cc1`, the EC50 [5] was 9.44 µM (active).

In the case of `NC(=O)N/N=C1\c2ccccc2-c2c(C(N)=O)cccc21`, the EC50 [5] is reported as 1.5 µM (active).

In the case of `CCSc1cc(N2CCCC2)nc(-c2ccccc2)n1`, the EC50 (Streptococcus) is reported as > 150 µM (not active), the EC50 (Streptokinase A) is reported as 66.1 µM (active) and the EC50 [2] is reported as > 150 µM (not active).

With `Cc1n[nH]c(C)c1CCCCOc1ccccc1F` the EC50 [5] was 3.76 µM (active).

With `COc1cccc(Cn2c(=O)c(-c3cn(C)c4ccccc34)nc3cncnc32)c1` the AC50 (Cytochrome P450 3A4) was 10 µM (inconclusive) and the AC50 (Cytochrome P450 2C9) was 0.794 µM (inconclusive).

For `COc1ccc(NC(=O)c2cc(-c3ccccc3OC)on2)cc1`, the IC50 [6] was > 47.1 µM (inactive), the EC50 [7] was > 53 µM (inactive) and the AC50 [8] was 0.248 µM (active).

In the case of `CCOC(=O)C1CCN(CC(O)COc2ccc(C(C)(C)C)cc2)CC1` (stereo unspecified), the EC50 [5] is reported as 1.88 µM (active).

For `O=C(CSc1ccc2ccccc2n1)N/N=C/c1ccccc1O`, the EC50 (Streptococcus) was 2.9 µM (active), the EC50 (Streptokinase A) was > 150 µM (not active) and the EC50 [2] was 1.1 µM (active).

With `CN(C)c1ccc([N+](=O)[O-])cc1C(=O)NCC(c1ccco1)N(C)C` (stereo unspecified) the EC50 [5] was 0.299 µM (active).

For `COc1ccccc1C(=O)Nc1ccc2c(c1)CCCN2C(=O)c1cccs1`, the CC50 [1] was 21.5 µM (active) and the EC50 [5] was 3.35 µM (active).

For `Cc1nn(-c2ccccc2)c(Cl)c1C1C(C#N)=C(N)OC2=C1C(=O)CCC2` (stereo unspecified), the EC50 (Streptococcus) was 15.9 µM (active), the EC50 (Streptokinase A) was > 150 µM (not active) and the EC50 [2] was 1.77 µM (active).

In the case of `NC(=O)c1nsc(C(=O)N(Cc2ccco2)C(C(=O)NCc2ccc(F)cc2)c2ccc(O)cc2)c1N` (stereo unspecified), the EC50 [5] is reported as 0.105 µM (active).

In the case of `CCOC(=O)c1sc(Nc2nc3ccc(OC)cc3s2)cc1C`, the EC50 (Streptococcus) is reported as 8.88 µM (active), the EC50 (Streptokinase A) is reported as > 150 µM (not active) and the EC50 [2] is reported as 9.29 µM (active).

For `CC(=O)Nc1cccc(C(=O)NCC2(N3CCCCC3)CCCCC2)c1`, the EC50 [5] was 2.66 µM (active).

For `CCOc1cc(/C=C2\C(=O)N(Cc3ccc(C)cc3)C(C)=C2C(=O)OC)ccc1O`, the AC50 (Cytochrome P450 3A4) was 1 µM (inconclusive).
